According to the NIST ThermoML archive (doi:10.1016/j.fluid.2016.08.035):
± gives the expanded uncertainty stated by the source.

How the values were obtained:
[1] = xn = mol fraction of the nth substance listed; details: 101 kPa, Liquid, x2 = 0; for viscosity: Falling or rolling sphere viscometry; for speed of sound: Sing-around technique in a fixed-path interferometer; for mass density: Vibrating tube method
[2] = molar heat capacity at constant pressure; xn = mol fraction of the nth substance listed; details: 101 kPa, Liquid, DSC, x2 = 0

| Compound | viscosity ([1]; 278.15 K) | speed of sound ([1]; 278.15 K) | mass density ([1]; 278.15 K) | viscosity ([1]; 298.15 K) | speed of sound ([1]; 298.15 K) | mass density ([1]; 298.15 K) | viscosity ([1]; 318.15 K) | speed of sound ([1]; 318.15 K) | mass density ([1]; 318.15 K) | viscosity ([1]; 338.15 K) | speed of sound ([1]; 338.15 K) | mass density ([1]; 338.15 K) | molar heat capacity at constant pressure ([2]; 278.15 K) | molar heat capacity at constant pressure ([2]; 298.15 K) | molar heat capacity at constant pressure ([2]; 318.15 K) | molar heat capacity at constant pressure ([2]; 338.15 K) |
| --- | --- | --- | --- | --- | --- | --- | --- | --- | --- | --- | --- | --- | --- | --- | --- | --- |
| CCCCCC [hexane] + CC12CCC(CC1)C(C)(C)O2 | 0.39 ± 0.04 mPa·s | 1169 ± 1.5 m/s | 673.1 ± 0.25 kg/m3 | 0.34 ± 0.04 mPa·s | 1078.2 ± 1.5 m/s | 655.3 ± 0.25 kg/m3 | 0.3 ± 0.04 mPa·s | 988.59 ± 1.5 m/s | 636.71 ± 0.25 kg/m3 | 0.26 ± 0.04 mPa·s | 901.09 ± 1.5 m/s | 617.44 ± 0.26 kg/m3 | 188.32 ± 7.3 J/K/mol | 194.96 ± 7.5 J/K/mol | 201.96 ± 7.8 J/K/mol | 208.99 ± 8.1 J/K/mol |
| CCCCCCCCCC [decane] + CC12CCC(CC1)C(C)(C)O2 | 1.19 ± 0.04 mPa·s | 1315 ± 1.5 m/s | 741.18 ± 0.24 kg/m3 | 0.86 ± 0.04 mPa·s | 1234.7 ± 1.5 m/s | 726.11 ± 0.24 kg/m3 | 0.66 ± 0.04 mPa·s | 1156.6 ± 1.5 m/s | 710.89 ± 0.24 kg/m3 | 0.54 ± 0.04 mPa·s | 1080.5 ± 1.5 m/s | 695.42 ± 0.25 kg/m3 | 305.94 ± 12 J/K/mol | 314.4 ± 12 J/K/mol | 323.94 ± 13 J/K/mol | 334.32 ± 13 J/K/mol |
| CCCCCCCC [octane] + CC12CCC(CC1)C(C)(C)O2 | 0.68 ± 0.04 mPa·s | 1256.7 ± 1.3 m/s | 714.55 ± 0.17 kg/m3 | 0.53 ± 0.04 mPa·s | 1172.7 ± 1.2 m/s | 698.51 ± 0.17 kg/m3 | 0.43 ± 0.04 mPa·s | 1090.7 ± 1.2 m/s | 682.19 ± 0.18 kg/m3 | 0.37 ± 0.04 mPa·s | 1010.7 ± 1.2 m/s | 665.43 ± 0.18 kg/m3 | 246.17 ± 9.5 J/K/mol | 253.89 ± 9.8 J/K/mol | 262.16 ± 10 J/K/mol | 270.96 ± 10 J/K/mol |
